In PubChem BioAssay AID248 (DTP/NCI, 2004):
Inconclusive results and toxic doses are left out. Cut-off read from the data, not from the text of the source: active = T/C of 150% or more; inactive = T/C below 125%.

Test system: L1210 leukemia ip in BDF1 mice, survival T/C
Test: NCI In Vivo Anticancer Drug Screen. Data for tumor model L1210 Leukemia (intraperitoneal) in B6D2F1 (BDF1) mice
Conditions: endpoint: mean survival time, higher = longer survival
Method in brief: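 Tumor was transplanted into mice, which were then dosed with test compound or vehicle alone. Survival was recorded for each group, and the treated figure was expressed relative to the control figure.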

[1] = dose: 100.0 mg/kg/injection, schedule: Q01DX009 (ip), vehicle: saline with Tween-80
[2] = dose: 200.0 mg/kg/injection, schedule: Q01DX009 (ip), vehicle: saline with Tween-80
[3] = dose: 400.0 mg/kg/injection, schedule: Q01DX009 (ip), vehicle: saline with Tween-80
[4] = dose: 100.0 mg/kg/injection, schedule: Q04DX003 (ip), vehicle: saline with Tween-80
[5] = dose: 200.0 mg/kg/injection, schedule: Q04DX003 (ip), vehicle: saline with Tween-80
[6] = dose: 400.0 mg/kg/injection, schedule: Q04DX003 (ip), vehicle: saline with Tween-80
[7] = dose: 100.0 mg/kg/injection, schedule: Q04DX003 (ip), vehicle: saline
[8] = dose: 200.0 mg/kg/injection, schedule: Q04DX003 (ip), vehicle: saline
[9] = dose: 400.0 mg/kg/injection, schedule: Q04DX003 (ip), vehicle: saline
[10] = dose: 100.0 mg/kg/injection, schedule: Q01DX009 (ip), vehicle: saline
[11] = dose: 100.0 mg/kg/injection, schedule: Q04DX002 (ip), vehicle: saline
[12] = dose: 200.0 mg/kg/injection, schedule: Q01DX009 (ip), vehicle: saline
[13] = dose: 200.0 mg/kg/injection, schedule: Q04DX002 (ip), vehicle: saline
[14] = dose: 400.0 mg/kg/injection, schedule: Q04DX002 (ip), vehicle: saline
[15] = dose: 100.0 mg/kg/injection, schedule: Q01DX001 (ip), vehicle: saline
[16] = dose: 100.0 mg/kg/injection, schedule: Q01DX009 (ip), vehicle: Klucel (hydroxypropylcellulose) (HPC)
[17] = dose: 200.0 mg/kg/injection, schedule: Q01DX009 (ip), vehicle: Klucel (hydroxypropylcellulose) (HPC)
[18] = dose: 400.0 mg/kg/injection, schedule: Q01DX009 (ip), vehicle: Klucel (hydroxypropylcellulose) (HPC)
[19] = dose: 200.0 mg/kg/injection, schedule: Q01DX001 (ip), vehicle: saline
[20] = dose: 400.0 mg/kg/injection, schedule: Q01DX001 (ip), vehicle: saline
[21] = dose: 50.0 mg/kg/injection, schedule: Q01DX009 (ip), vehicle: saline with Tween-80

Measured: T/C

CC12CCC3c4ccc(Oc5ccccc5N)cc4CCC3C1CCC2=O (configuration not stated)
inactive: dose: 100.0 mg/kg/injection, schedule: Q01DX001 (sc), vehicle: steriod suspending solution 101 % of control | dose: 200.0 mg/kg/injection, schedule: Q01DX001 (sc), vehicle: steriod suspending solution 95 % of control | dose: 400.0 mg/kg/injection, schedule: Q01DX001 (sc), vehicle: steriod suspending solution 89 % of control

Cc1ccc(NC(=O)Nc2ccccc2F)cc1NC(=O)Nc1ccccc1F
inactive: [1] 93 % of control | [2] 88 % of control | [3] 94 % of control

C1=CC2(CCCC1)OCCO2
inactive: [4] 100 % of control | [5] 97 % of control | [6] 108 % of control

N#C/C(=C\c1cc(Br)cc(Br)c1O)c1ccc([N+](=O)[O-])cc1
inactive: [4] 97 % of control | [5] 87 % of control | [6] 102 % of control

CN(C)NC(=O)NCCCl
inactive: [7] 106 % of control | [8] 105 % of control | [9] 108 % of control

COc1nc(Cl)nc2c1c(C#N)cn2C1OC(CO)C(O)C1O (configuration not stated)
inactive: dose: 100.0 mg/kg/injection, schedule: Q01DX005 (ip), vehicle: saline 113 % of control

O=C1NC2(CCCCC2)NC12CCCCC2
inactive: dose: 25.0 mg/kg/injection, schedule: Q01DX009 (ip), vehicle: saline 118 % of control | dose: 50.0 mg/kg/injection, schedule: Q01DX009 (ip), vehicle: saline 110 % of control | [10] 106 % of control

N=C(OCCCO)C(=N)OCCCO
inactive: [4] 115 % of control | [5] 102 % of control | [6] 96 % of control

CCOC(=O)c1ccc2c(c1)C(=O)c1cc([N+](=O)[O-])ccc1-2
inactive: dose: 100.0 mg/kg/injection, schedule: Q01DX001 (ip), vehicle: carboxymethylcellulose (CMC) 96 % of control | dose: 200.0 mg/kg/injection, schedule: Q01DX001 (ip), vehicle: carboxymethylcellulose (CMC) 96 % of control | dose: 400.0 mg/kg/injection, schedule: Q01DX001 (ip), vehicle: carboxymethylcellulose (CMC) 96 % of control

CCN(CC)C(=O)N1CCCCC1
inactive: [10] 101 % of control | [11] 97 % of control | [12] 92 % of control | [13] 100 % of control | [14] 95 % of control

Cc1c(CCO)sc[n+]1Cc1cccc([N+](=O)[O-])c1
inactive: [15] 98 % of control

CCCCOC(=O)C(C)(O)C(Cl)c1ccccc1 (configuration not stated)
inactive: [11] 100 % of control | [13] 95 % of control | [14] 91 % of control

COC(=O)C(CCSC)NC(=O)C1CSC(C)(C)N1C=O (configuration not stated)
inactive: [7] 97 % of control | [8] 97 % of control | [9] 101 % of control

CC(=O)c1cccc(NC(=O)Oc2ccc(C(=O)OCc3ccccc3)cc2)c1
inactive: [16] 98 % of control | [17] 95 % of control | [18] 106 % of control

COc1ccc(C(=O)C2=CC(=O)C(=O)C2)cc1OC
inactive: [15] 98 % of control | [19] 98 % of control | [20] 94 % of control

CCN(CC)C(=S)Nc1ccc([N+](=O)[O-])cc1
inactive: [16] 104 % of control | [17] 86 % of control | [18] 100 % of control

ClCc1ccncc1
inactive: [10] 87 % of control | [7] 109 % of control | [12] 95 % of control | [8] 98 % of control | [9] 98 % of control

CC(C)(C)SCC#CCSC(C)(C)C
inactive: [21] 100 % of control | [1] 118 % of control | dose: 100.0 mg/kg/injection, schedule: Q04DX002 (ip), vehicle: saline with Tween-80 103 % of control | [2] 96 % of control | dose: 200.0 mg/kg/injection, schedule: Q04DX002 (ip), vehicle: saline with Tween-80 100 % of control

Cc1cc(O)c(O)c([N+](=O)[O-])c1
inactive: [4] 96 % of control | [5] 92 % of control | [6] 101 % of control

O=[N+]([O-])C1C=NCCN=C1
inactive: dose: 100.0 mg/kg/injection, schedule: Q04DX013 (ip), vehicle: carboxymethylcellulose (CMC) 96 % of control | dose: 200.0 mg/kg/injection, schedule: Q04DX013 (ip), vehicle: carboxymethylcellulose (CMC) 94 % of control | dose: 400.0 mg/kg/injection, schedule: Q04DX013 (ip), vehicle: carboxymethylcellulose (CMC) 94 % of control

COc1ccc(OC)c2c1C=CCC=C2
inactive: [21] 95 % of control | [1] 88 % of control | dose: 100.0 mg/kg/injection, schedule: Q04DX003 (ip), vehicle: acetone 117 % of control | [2] 102 % of control | dose: 200.0 mg/kg/injection, schedule: Q04DX003 (ip), vehicle: acetone 94 % of control

O=c1[nH]cc(CC(F)(F)C(F)(F)F)c(=O)[nH]1
inactive: dose: 50.0 mg/kg/injection, schedule: Q01DX005 (ip), vehicle: other 87 % of control

COc1cc(Cl)c(/C=C2\N=C(c3ccccc3)OC2=O)cc1OC
inactive: dose: 50.0 mg/kg/injection, schedule: Q01DX001 (ip), vehicle: saline 94 % of control | [15] 91 % of control | [19] 97 % of control | [20] 94 % of control

O=[N+]([O-])c1ccccc1N=Nc1c(O)[nH]c2c(Cl)cc(Cl)cc12
inactive: [15] 105 % of control

CCC(C)c1cc([N+](=O)[O-])cc([N+](=O)[O-])c1SC(=O)N(C)C (configuration not stated)
inactive: [16] 94 % of control | [17] 97 % of control | [18] 100 % of control

COc1cc(/C=N/[N+](C)(C)C)ccc1O
inactive: dose: 12.5 mg/kg/injection, schedule: Q01DX009 (ip), vehicle: saline with Tween-80 94 % of control | dose: 12.5 mg/kg/injection, schedule: Q04DX003 (ip), vehicle: saline with Tween-80 96 % of control | dose: 25.0 mg/kg/injection, schedule: Q01DX009 (ip), vehicle: saline with Tween-80 96 % of control | dose: 25.0 mg/kg/injection, schedule: Q04DX003 (ip), vehicle: saline with Tween-80 93 % of control | dose: 50.0 mg/kg/injection, schedule: Q04DX003 (ip), vehicle: saline with Tween-80 97 % of control

CCOC(=O)C[N+]1(C)CCC(O)CC1 (configuration not stated)
inactive: [7] 98 % of control | [8] 98 % of control | [9] 101 % of control

CC(=O)c1cccc(C#N)c1
inactive: [1] 100 % of control | [2] 97 % of control | [3] 105 % of control
